Experimental data as given in patent US20240392241A1, “METHOD FOR PRODUCING CELL MASS INCLUDING PITUITARY TISSUE AND CELL MASS” (SUMITOMO CHEMICAL COMPANY, LIMITED, priority 2021, published 2024).

System: human iPS cells (201B7 strain)
Test: Immunostaining of ACTH and E-cadherin in cell aggregates on day 103 (Example 7)
Type: cell-based
Experimental: According to the steps shown in FIG. 10A, suspension culturing was performed using human iPS cells (201B7 strain) in the same manner as in Example 4, and continued until day 103. Using the obtained cell aggregates, cryosections were prepared in the same manner as in Example 3. The obtained sections were subjected to immunostaining using anti-ACTH antibody (manufactured by Fitzgerald Industries) and anti-E-cadherin antibody (manufactured by Takara Bio Inc.), and the nucleus was stained with DAPI. […] The scale bar at the bottom right of FIG. 10B indicates 200 μm.

**Q.** `Cc1cc(NC(=O)c2cccc(NC(=O)/C=C/CN(C)C)c2)ccc1Nc1nccc(-c2cccnc2)n1` [JNK—IN-8, (E)-3-(4-(dimethylamino)but-2-enamido)-N-(3-methyl-4-((4-(pyridin-3-yl)pyrimidin-2-yl)amino)phenyl)benzamide] was tested. Which “proportion of ACTH-positive cells in the entire cell aggregate” value (JNKi(+), mean±SEM, n=8-12) did it give?
**A.** The value was 42.2±4.4 % of total cells.

**Q.** What about the “proportion of E-cadherin-positive cells in the layer covering the surface of cell aggregates vs non-addition control” value (JNK—IN-8 added) of the same compound?
**A.** Its value is “higher”.
